From US4839353A, “Anti-ulcer substituted pyridine derivatives” (Banyu Pharmaceutical Co., Ltd., priority 1986, dated 1989)
Structures can show the parent of a compound that is named as a salt.

How the values were obtained:
H^+,K^+ -ATPase = target: T1, H^+,K^+ -ATPase (Oryctolagus cuniculus, UniProt P27112); assay: Inhibitory effects on the activity of H^+,K^+ -ATPase; assay type: biochemical; conditions: H^+,K^+ -ATPase-containing light membrane fractions from rabbit gastric glands; read-out: 50% Enzyme inhibitory concentration (IC50)
T1 construct: Rabbit gastric glands were homogenized and microsomal fractions were prepared; from tissue; host or cells: rabbit gastric glands, light microsomal membrane fraction
Method: (1) Inhibitory effects on the activity of H^+,K^+ -ATPase Rabbit gastric glands were homogenized and microsomal fractions were prepared by differential centrifugation of the resultant homogenate. The microsomal fractions were layered on 37% sucrose and centrifuged to obtain light membrane fractions containing H^+,K^+ -ATPase. Using the H^+,K^+ -ATPase-containing fractions, the effects of the compounds of this invention and omeprazole on the activity of H^+,K^+ -ATPase were examined. The inhibitory activities of the compounds of this invention on H^+,K^+ -ATPase measured by the above method are shown in Table I.

[1] = tested on: gastric ulcer induced by ethanol-hydrochloric acid; assay: Effect of preventing gastric ulcer induced by ethanol-hydrochloric acid; assay type: in vivo; conditions: SD-strain male rats, oral, 30 min before 0.2N hydrochloric acid-50% ethanol (1 ml/rat); length of bleeding erosions; read-out: 50% Effective dose (ED50, mg/kg)
Method: (3) Effect of preventing gastric ulcer induced by ethanol-hydrochloric acid According to the method of Robert et al. (see "Gastroenterology" 77, 433-443 (1979), SD-strain rats (male, weighing 200 to 220 g, 8 rats in each group) were deprived of food for 24 hours and of water for 19 hours. Each of the test compounds was suspended in 0.5% carboxymethyl cellulose, and orally administered to the rats. Thirty minutes after administration, 0.2N hydrochloric acid-50% ethanol (1 ml/rat) was orally administered. One hour after the administration of ethanol-hydrochloric acid, the rats were killed. The stomachs were dissected out, and the lower part of the esophagus was nipped with a clip. Aqueous 1% formalin solution (12.0 ml) was poured into the stomachs from the duodenum and then the duodenum part was nipped with a clip. The whole stomachs were immersed in aqueous 1% formalin for about 10 minutes for fixation. The stomachs were opened along the greater curvature and then rinsed with water. The gastric mucosa was examined and the lengths of bleeding erosions which occurred in the glandular stomach were measured in mm under an anatomic microscope. From the test results obtained by the above method, the ED50 (50% effective dose) of each of the test compounds was calculated.

gastric acid secretion = assay: Gastric acid antisecretory activity (histamine-enhanced gastric acid secretion in anesthetized rats); assay type: in vivo; conditions: Rattus norvegicus, iv, 1.25 h; male Doryu rats, urethane anesthesia, histamine infusion 2 mg/kg/hr, test compound via jugular vein 75 min after start of infusion; read-out: Gastric acid antisecretory activity 50% Effective dose (ED50, mg/kg)
Method: (2) Gastric acid antisecretory activity The method of preparation was based on the technique of Osumi et al. (see "Life Science" 20, 1407, 1977). Male Doryu rats weighing about 250 g were deprived of food for 24 hours but were allowed free access to water before experiments. […] The esophagus was ligated, and bilateral vagus nerves were carefully separated and cut at the cervical portion. The abdomen was opened by a midoline incinion, and a polyethylene cannula (about 3.5 cm in length and 0.4 cm in diameter) was inserted into the stomach via an incision in the duodenum. After washout of the stomach with saline, 2.0 ml of fresh saline prewarmed at 38° C. was instilled and replaced with fresh solution at 15 min intervals. Several successive collections of basal acid secretion were made to confirm the steady level of secretion. After these collections, gastric acid secretion was enhanced by infusion of histamine. Gastric acid secretion was determined as follows: the total value of gastric solution recovered from the stomach every 15 min was titrated to pH 7.0 with 0.1N NaOH, using an automatic titrator (Radiometer, Copenhage, Denmark). Acid output secreted for 15 min were calculated as microequivalents per 15 min. […] From the acid output in a control group measured at the time when the acid output secreted was lowest, the acid secretion inhibitory ratio (R) was calculated in accordance with the following equation. [formula] wherein V° is the acid output produced when the animals were not treated with the test compounds (control), and V is the acid output acid produced when the test compounds were administered to the animals. Furthermore, from correlation line between the dose and the inhibitory ratio at the dose by using the method of least squares, the 50% inhibitory dose was determined.

T1 sequence (P27112 2-1035 limits assumed): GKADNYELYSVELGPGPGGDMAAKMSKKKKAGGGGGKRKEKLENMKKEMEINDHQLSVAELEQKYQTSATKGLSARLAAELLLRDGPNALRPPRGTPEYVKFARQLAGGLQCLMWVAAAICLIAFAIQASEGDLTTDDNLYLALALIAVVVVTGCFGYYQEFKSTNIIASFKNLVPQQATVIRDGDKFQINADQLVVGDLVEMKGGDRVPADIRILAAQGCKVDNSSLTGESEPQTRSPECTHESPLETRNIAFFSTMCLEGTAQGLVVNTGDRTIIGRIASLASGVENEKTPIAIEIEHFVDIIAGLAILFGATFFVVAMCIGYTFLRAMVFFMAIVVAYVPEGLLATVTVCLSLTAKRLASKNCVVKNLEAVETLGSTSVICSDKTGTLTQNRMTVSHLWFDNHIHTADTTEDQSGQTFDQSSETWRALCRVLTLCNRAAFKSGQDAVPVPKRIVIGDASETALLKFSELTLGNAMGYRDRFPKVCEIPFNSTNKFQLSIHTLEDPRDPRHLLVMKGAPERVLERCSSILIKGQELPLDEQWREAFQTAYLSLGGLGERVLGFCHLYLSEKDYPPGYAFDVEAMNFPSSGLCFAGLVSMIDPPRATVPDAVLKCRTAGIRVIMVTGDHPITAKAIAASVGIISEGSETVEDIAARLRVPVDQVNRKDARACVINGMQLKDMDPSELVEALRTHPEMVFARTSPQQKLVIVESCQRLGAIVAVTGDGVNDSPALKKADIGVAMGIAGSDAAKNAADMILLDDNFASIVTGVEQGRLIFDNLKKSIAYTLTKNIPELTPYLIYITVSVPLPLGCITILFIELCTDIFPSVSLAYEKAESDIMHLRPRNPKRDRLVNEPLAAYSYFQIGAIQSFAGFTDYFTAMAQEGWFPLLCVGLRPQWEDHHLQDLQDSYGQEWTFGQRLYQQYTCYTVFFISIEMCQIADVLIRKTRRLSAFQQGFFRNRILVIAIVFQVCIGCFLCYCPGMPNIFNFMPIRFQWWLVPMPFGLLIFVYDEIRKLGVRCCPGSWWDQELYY
T1 sequence (P18597 whole entry partner): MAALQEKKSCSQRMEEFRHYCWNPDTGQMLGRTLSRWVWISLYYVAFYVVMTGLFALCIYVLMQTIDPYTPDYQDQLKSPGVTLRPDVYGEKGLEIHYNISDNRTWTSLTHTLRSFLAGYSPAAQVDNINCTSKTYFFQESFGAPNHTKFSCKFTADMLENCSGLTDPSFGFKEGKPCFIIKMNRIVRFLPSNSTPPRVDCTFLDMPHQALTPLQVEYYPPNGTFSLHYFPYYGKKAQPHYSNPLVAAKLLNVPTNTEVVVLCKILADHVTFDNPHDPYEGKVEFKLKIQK

IC50 (H^+,K^+ -ATPase) | Compound | ED50 [1] | ED50 (gastric acid secretion)
8.4 µM | Cc1cnc(COc2ccccc2)cc1N1CCCCC1.Cl [Test compound 1, 5-methyl-2-phenoxymethyl-4-piperidinopyridine hydrochloride] | 12.1 mg/kg | 
16 µM | Cc1cnc(CSc2ccccc2)cc1N1CCCCC1.Cl [Test compound 5, 5-methyl-2-phenylthiomethyl-4-piperidinopyridine hydrochloride] | 9.2 mg/kg | 
9 µM | Cc1cnc(CSc2ccc3ccccc3c2)cc1N1CCCCC1.Cl [Test compound 6, 5-methyl-2-[(2-naphthyl)thiomethyl]-4-piperidinopyridine hydrochloride] | 7.3 mg/kg | 
4.8 µM | Cc1cnc(/C=C\c2ccc(Cl)c3ccccc23)cc1N1CCCCC1.Cl [Test compound 8, (Z)-2-[2-(4-chloro-1-naphthyl)vinyl]-5-methyl-4-piperidinopyridine hydrochloride] |  | 2.78 mg/kg
6 µM | Cc1cnc(/C=C\c2cccc3c(C)cccc23)cc1N1CCCCC1 [Test compound 10, (Z)-2-[2-(5-methyl-1-naphthyl)vinyl]-5-methyl-4-piperidinopyridine hydrochloride] |  | 
2.3 µM | Cc1cnc(/C=C\c2cccc3cccc(C)c23)cc1N1CCCCC1 [Test compound 11, (Z)-2-[2-(8-methyl-1-naphthyl)vinyl]-5-methyl-4-piperidinopyridine] |  | 0.92 mg/kg
2.8 µM | Cc1cnc(/C=C\c2cccc3ccccc23)cc1N1CCC(C)CC1.Cl [Test compound 14, (Z)-5-methyl-4-(4-methylpiperidino)-2-[2-(1-naphthyl)vinyl]pyridine hydrochloride] |  | 1.09 mg/kg
2.6 µM | C(=C/c1cnccc1N1CCCCC1)/c1ccc2ccccc2c1 [Test compound 16, (Z)-3-[2-(2-naphthyl)vinyl]-4-piperidinopyridine] |  | 
4.3 µM | Cc1cnc(/C=C/c2ccc3ccccc3c2)cc1N1CCCCC1 [Test compound 17, (E)-5-methyl-2-[2-(2-naphthyl)vinyl]-4-piperidinopyridine hydrochloride] |  | 
8.4 µM | Cc1cnc(/C=C\c2ccc3ccccc3c2)cc1N1CCCCC1 [Test compound 18, (Z)-5-methyl-2-[2-(2-naphthyl)vinyl]-4-piperidinopyridine hydrochloride] |  | 
7.8 µM | Cc1ccc2cc(/C=C\c3cc(N4CCCCC4)c(C)cn3)ccc2c1 [Test compound 19, (Z)-5-methyl-2-[2-(6-methyl-2-naphthyl)-vinyl]-4-piperidinopyridine] |  | 
4.6 µM | Cc1cnc(/C=C\c2cccc(Cl)c2Cl)cc1N1CCCCC1 [Test compound 20, (Z)-2-[2-(2,3-dichlorophenyl)vinyl]-5-methyl-4-piperidinopyridine hydrochloride] |  | 
2.7 µM | Cc1cnc(CCc2cccc3ccccc23)cc1N1CCC(C)CC1.Cl [Test compound 21, 5-methyl-4-(4-methylpiperidino)-2-[2-(1-naphthyl)ethyl]pyridine hydrochloride] |  | 0.78 mg/kg
3.6 µM | Cc1cnc(CCc2cccc3ccccc23)cc1N1CCCCC1 [Test compound 22, 5-methyl-2-[2-(1-naphthyl)ethy]-4-piperidinopyridine hydrochloride] | 5.4 mg/kg | 2.5 mg/kg
4.6 µM | Cc1cnc(CCc2ccc(C)c3ccccc23)cc1N1CCCCC1 [Test compound 23, 5-methyl-2-[2-(4-methyl-1-naphthyl)-ethyl]-4-piperidinopyridine hydrochloride] |  | 
6 µM | Cc1cnc(CCc2cccc3cccc(C)c23)cc1N1CCCCC1.Cl [Test compound 24, 5-methyl-2-[2-(8-methyl-1-naphthyl)-ethyl]-4-piperidinopyridine hydrochloride] |  | 2.72 mg/kg
2.6 µM | Cc1cnc(CCc2cccc3ccccc23)cc1OC1CCCCC1.Cl [Test compound 25, 4-cyclohexyloxy-5-methyl-2-[2-(1-naphthyl)ethyl]pyridine hydrochloride] |  | 0.91 mg/kg
1.7 µM | Cc1cnc(CCc2cccc3ccccc23)cc1N1CCCC(C)C1.Cl (stereo not drawn) [Test compound 26, 5-methyl-4-(3-methylpiperidino)-2-[2-(1-naphthyl)ethyl]pyridine hydrochloride] |  | 0.91 mg/kg
 | Cc1cnc(CCc2ccccc2)cc1N1CCCCC1.Cl [Test compound 27, 5-methyl-2-phenethyl-4-piperidinopyridine hydrochloride] | 5.4 mg/kg | 
3 µM | Cc1cnc(CCc2ccc3ccccc3c2)cc1N1CCCCC1.Cl [Test compound 28, 5-methyl-2-[2-(2-naphthyl)ethyl]-4-piperidinopyridine hydrochloride] | 3.6 mg/kg | 
2.3 µM | Cc1ccc2cc(CCc3cc(N4CCCCC4)c(C)cn3)ccc2c1 [Test compound 29, 5-methyl-2-[2-(6-methyl-2-naphthyl)-ethyl]-4-piperidinopyridine hydrochloride] |  | 
3.5 µM | Cc1cnc(COc2ccc(C(C)(C)C)cc2)cc1N1CCCCC1 [compound 2] |  | 
4.1 µM | CCC(C)c1ccc(OCc2cc(N3CCCCC3)c(C)cn2)cc1 (stereo not drawn) [compound 3] |  | 
3.8 µM | Cc1cnc(COc2ccc(C3CCCCC3)cc2)cc1N1CCCCC1 [compound 4] |  | 
2.2 µM | Cc1cnc(/C=C\c2cccc3ccccc23)cc1N1CCCCC1 [compound 7] |  | 1.16 mg/kg
5.9 µM | Cc1cnc(/C=C\c2ccc(F)c3ccccc23)cc1N1CCCCC1 [compound 9] |  | 
3.5 µM | Cc1cnc(/C=C\c2cccc3ccccc23)cc1OC1CCCCC1 [compound 12] |  | 1.35 mg/kg
0.78 µM | Cc1cnc(/C=C\c2cccc3ccccc23)cc1N1CCCCCC1 [compound 13] |  | 0.9 mg/kg
1.7 µM | Cc1cnc(/C=C\c2cccc3ccccc23)cc1N1CCCC(C)C1 (stereo not drawn) [compound 15] |  | 0.99 mg/kg
6.2 µM | COc1ccc2[nH]c([S+]([O-])Cc3ncc(C)c(OC)c3C)nc2c1 (stereo not drawn) [omeprazole, reference compound] | 34.1 mg/kg | 
